Earlier results on one compound are cited in patent publication US5502059A, “Substituted 1-naphthyl-3-pyrazolecarboxamides which are active on neurotensin, their preparation and pharmaceutical compositions containing them” (Sanofi, priority 1993, dated 1996).

This data set has as its system neurotensin receptors.

Regarding `COc1cccc(OC)c1-c1cc(C(=O)NC2(C(=O)O)C3CC4CC(C3)CC2C4)nn1-c1ccnc2cc(Cl)ccc12` (stereo not shown) [SR 48692, 2-1-(7-chloro-4-quinolyl)-5-(2,6-dimethoxyphenyl)-3pyrazolylcarbonylamino!-2-adamantanecarboxylic acid], the neurotensin-antagonist activity entry is “potent and selective neurotensin-antagonist activity”.
